Values after ≈ are worked out from the molar mass of the structure shown.
How the values were obtained:
[1] = test system: C6; assay: Cytotoxicity against rat C6 cells after 24 hrs by MTT assay; format: functional, cell-based; conditions: C6, 24 h
[2] = test system: NIH3T3; assay: Cytotoxicity against mouse NIH/3T3 cells after 24 hrs by MTT assay; format: cell-based; conditions: NIH3T3, 24 h
[3] = test system: C6; assay: Cytotoxicity against rat C6 cells assessed as cell viability at 200 ug/ml after 24 hrs by MTT assay relative to control; format: functional; conditions: C6, 24 h, read-out: Activity
[4] = test system: C6; assay: Cytotoxicity against rat C6 cells assessed as cell viability at 100 ug/ml after 24 hrs by MTT assay relative to control; format: functional; conditions: C6, 24 h, read-out: Activity
[5] = test system: C6; assay: Cytotoxicity against rat C6 cells assessed as cell viability at 50 ug/ml after 24 hrs by MTT assay relative to control; format: functional; conditions: C6, 24 h, read-out: Activity
[6] = test system: C6; assay: Cytotoxicity against rat C6 cells assessed as cell viability at 25 ug/ml after 24 hrs by MTT assay relative to control; format: functional; conditions: C6, 24 h, read-out: Activity
[7] = test system: C6; assay: Cytotoxicity against rat C6 cells assessed as cell viability at 12 ug/ml after 24 hrs by MTT assay relative to control; format: functional; conditions: C6, 24 h, read-out: Activity
[8] = test system: C6; assay: Cytotoxicity against rat C6 cells assessed as cell viability at 6 ug/ml after 24 hrs by MTT assay relative to control; format: functional; conditions: C6, 24 h, read-out: Activity
[9] = test system: Candida albicans; assay: Antimicrobial activity against Candida albicans ATCC 22019 after 18 to 24 hrs by microbroth dilution method; format: functional
[10] = test system: Fusarium culmorum; assay: Antimicrobial activity against wild type Fusarium culmorum after 48 to 72 hrs by microbroth dilution method; format: functional
[11] = test system: Fusarium verticillioides; assay: Antimicrobial activity against Fusarium moniliforme NRRL 1866 after 48 to 72 hrs by microbroth dilution method; format: functional
[12] = test system: Fusarium solani; assay: Antimicrobial activity against Fusarium solani NRRL 13414 after 48 to 72 hrs by microbroth dilution method; format: functional
[13] = test system: Aspergillus ochraceus; assay: Antimicrobial activity against Aspergillus ochraceus NRRL 3174 after 48 to 72 hrs by microbroth dilution method; format: functional
[14] = test system: Trichoderma harzianum; assay: Antimicrobial activity against Trichoderma harzianum NRRL 20565 after 48 to 72 hrs by microbroth dilution method; format: functional
[15] = test system: Penicillium chrysogenum; assay: Antimicrobial activity against Penicillium chrysogenum NRRL 1951 after 48 to 72 hrs by microbroth dilution method; format: functional
[16] = test system: Aspergillus parasiticus; assay: Antimicrobial activity against Aspergillus parasiticus NRRL 465 after 48 to 72 hrs by microbroth dilution method; format: functional
[17] = test system: Bacillus subtilis; assay: Antimicrobial activity against Bacillus subtilis NRS-744 after 18 to 24 hrs by microbroth dilution method; format: functional
[18] = test system: Micrococcus luteus; assay: Antimicrobial activity against Micrococcus luteus NRLL B-4375 after 18 to 24 hrs by microbroth dilution method; format: functional
[19] = test system: Pseudomonas aeruginosa; assay: Antimicrobial activity against Pseudomonas aeruginosa […] after 18 to 24 hrs by microbroth dilution method; format: functional
[20] = test system: Escherichia coli; assay: Antimicrobial activity against Escherichia coli ATCC 25922 after 18 to 24 hrs by microbroth dilution method; format: functional
[21] = test system: Listeria monocytogenes; assay: Antimicrobial activity against Listeria monocytogenes ATCC 7644 after 18 to 24 hrs by microbroth dilution method; format: functional
[22] = test system: Staphylococcus aureus; assay: Antimicrobial activity against Staphylococcus aureus NRRL B-767 after 18 to 24 hrs by microbroth dilution method; format: functional

| Compound | IC50 [1] [µg/mL] | IC50 [2] [µg/mL] | viability at 200 µg/mL [3] [%] | viability at 100 µg/mL [4] [%] | viability at 50 µg/mL [5] [%] | viability at 25 µg/mL [6] [%] | MIC [9] [µg/mL] | MIC [10] [µg/mL] | MIC [11] [µg/mL] | MIC [12] [µg/mL] | MIC [13] [µg/mL] | MIC [14] [µg/mL] | MIC [15] [µg/mL] | MIC [16] [µg/mL] | MIC [17] [µg/mL] | MIC [18] [µg/mL] | MIC [19] [µg/mL] | MIC [20] [µg/mL] | MIC [21] [µg/mL] | MIC [22] [µg/mL] | further results |
| --- | --- | --- | --- | --- | --- | --- | --- | --- | --- | --- | --- | --- | --- | --- | --- | --- | --- | --- | --- | --- | --- |
| O=C(CSc1nnnn1-c1ccccc1)N/N=c1/scc(-c2ccc(Cl)cc2)n1-c1ccccc1 | > 200 | 313 (≈ 602 µM) | 52.4 | 54.3 | 60 | 62.3 | 250 (≈ 481 µM) | 250 (≈ 481 µM) | 250 (≈ 481 µM) | 250 (≈ 481 µM) | 250 (≈ 481 µM) | 125 (≈ 240 µM) | 250 (≈ 481 µM) | 250 (≈ 481 µM) | 250 (≈ 481 µM) | 125 (≈ 240 µM) | 125 (≈ 240 µM) | 125 (≈ 240 µM) | 250 (≈ 481 µM) | 250 (≈ 481 µM) | viability at 12 µg/mL [7]: 69.3%; viability at 6 µg/mL [8]: 77.4% |
| O=C(CSc1ncccn1)N/N=c1/scc(-c2ccc(Br)cc2)n1-c1ccccc1 | > 200 | 273 (≈ 548 µM) | 63.2 | 67.6 | 69 | 72.3 | 250 (≈ 502 µM) | 250 (≈ 502 µM) | 250 (≈ 502 µM) | 250 (≈ 502 µM) | 250 (≈ 502 µM) | 250 (≈ 502 µM) | 250 (≈ 502 µM) | 250 (≈ 502 µM) | 250 (≈ 502 µM) | 250 (≈ 502 µM) | 250 (≈ 502 µM) | 250 (≈ 502 µM) | 250 (≈ 502 µM) | 500 (≈ 1000 µM) | viability at 12 µg/mL [7]: 72.1%; viability at 6 µg/mL [8]: 76.4% |
| Cc1ccc(-c2cs/c(=N/NC(=O)CSc3nncn3C)n2-c2ccccc2)cc1 | 56 (≈ 128 µM) | 130 (≈ 298 µM) | 27.8 | 39.6 | 53.8 | 70.7 | 125 (≈ 286 µM) | 250 (≈ 573 µM) | 250 (≈ 573 µM) | 250 (≈ 573 µM) | 250 (≈ 573 µM) | 125 (≈ 286 µM) | 250 (≈ 573 µM) | 250 (≈ 573 µM) | 250 (≈ 573 µM) | 125 (≈ 286 µM) | 250 (≈ 573 µM) | 125 (≈ 286 µM) | 250 (≈ 573 µM) | 250 (≈ 573 µM) | viability at 12 µg/mL [7]: 72%; viability at 6 µg/mL [8]: 74.6% |
| Cc1ccc(-c2cs/c(=N/NC(=O)CSc3ncccn3)n2-c2ccccc2)cc1 | 85 (≈ 196 µM) | > 500 | 43.7 | 45.9 | 64.4 | 82.7 | 250 (≈ 577 µM) | 250 (≈ 577 µM) | 250 (≈ 577 µM) | 250 (≈ 577 µM) | 250 (≈ 577 µM) | 250 (≈ 577 µM) | 250 (≈ 577 µM) | 250 (≈ 577 µM) | 500 (≈ 1150 µM) | 250 (≈ 577 µM) | 250 (≈ 577 µM) | 250 (≈ 577 µM) | 250 (≈ 577 µM) | 250 (≈ 577 µM) | viability at 12 µg/mL [7]: 83%; viability at 6 µg/mL [8]: 93.2% |
| COc1ccc(-c2cs/c(=N/NC(=O)CSc3ncccn3)n2-c2ccccc2)cc1 | 102 (≈ 226 µM) | 450 (≈ 1000 µM) | 37.6 | 51.5 | 66.5 | 74 | 250 (≈ 556 µM) | 250 (≈ 556 µM) | 250 (≈ 556 µM) | 250 (≈ 556 µM) | 250 (≈ 556 µM) | 250 (≈ 556 µM) | 250 (≈ 556 µM) | 250 (≈ 556 µM) | 250 (≈ 556 µM) | 250 (≈ 556 µM) | 250 (≈ 556 µM) | 250 (≈ 556 µM) | 250 (≈ 556 µM) | 250 (≈ 556 µM) | viability at 12 µg/mL [7]: 78.4%; viability at 6 µg/mL [8]: 89.6% |
| O=C(CSc1ncccn1)N/N=c1/scc(-c2ccc(F)cc2)n1-c1ccccc1 | 110 (≈ 251 µM) | > 500 | 32.2 | 53.4 | 55.5 | 63.9 | 250 (≈ 571 µM) | 250 (≈ 571 µM) | 250 (≈ 571 µM) | 250 (≈ 571 µM) | 250 (≈ 571 µM) | 250 (≈ 571 µM) | 250 (≈ 571 µM) | 250 (≈ 571 µM) | 500 (≈ 1140 µM) | 250 (≈ 571 µM) | 250 (≈ 571 µM) | 250 (≈ 571 µM) | 250 (≈ 571 µM) | 500 (≈ 1140 µM) | viability at 12 µg/mL [7]: 77.4%; viability at 6 µg/mL [8]: 84% |
| Cc1nnc(SCC(=O)N/N=c2/scc(-c3ccccc3)n2-c2ccccc2)s1 | > 200 | 197 (≈ 447 µM) | 59.2 | 61.8 | 63.9 | 65.9 | 250 (≈ 569 µM) | 250 (≈ 569 µM) | 250 (≈ 569 µM) | 250 (≈ 569 µM) | 250 (≈ 569 µM) | 125 (≈ 284 µM) | 250 (≈ 569 µM) | 250 (≈ 569 µM) | 500 (≈ 1140 µM) | 250 (≈ 569 µM) | 250 (≈ 569 µM) | 250 (≈ 569 µM) | 250 (≈ 569 µM) | 500 (≈ 1140 µM) | viability at 12 µg/mL [7]: 72.5%; viability at 6 µg/mL [8]: 72.4% |
| Cn1cnnc1SCC(=O)N/N=c1/scc(-c2ccccc2)n1-c1ccccc1 | 68.3 (≈ 162 µM) | 217 (≈ 513 µM) | 35.5 | 38.6 | 62.4 | 77.3 | 250 (≈ 592 µM) | 250 (≈ 592 µM) | 250 (≈ 592 µM) | 250 (≈ 592 µM) | 250 (≈ 592 µM) | 125 (≈ 296 µM) | 250 (≈ 592 µM) | 250 (≈ 592 µM) | 250 (≈ 592 µM) | 250 (≈ 592 µM) | 250 (≈ 592 µM) | 250 (≈ 592 µM) | 250 (≈ 592 µM) | 250 (≈ 592 µM) | viability at 12 µg/mL [7]: 79.6%; viability at 6 µg/mL [8]: 90% |
| Cn1cnnc1SCC(=O)N/N=c1/scc(-c2ccc(F)cc2)n1-c1ccccc1 | – | 65 (≈ 148 µM) | – | – | – | – | 250 (≈ 567 µM) | 250 (≈ 567 µM) | 250 (≈ 567 µM) | 250 (≈ 567 µM) | 250 (≈ 567 µM) | 250 (≈ 567 µM) | 250 (≈ 567 µM) | 250 (≈ 567 µM) | 250 (≈ 567 µM) | 250 (≈ 567 µM) | 125 (≈ 284 µM) | 125 (≈ 284 µM) | 125 (≈ 284 µM) | 125 (≈ 284 µM) | – |

From ChEMBL document CHEMBL3124777, “Synthesis and biological evaluation of thiazoline derivatives as new antimicrobial and anticancer agents” (Eur J Med Chem, 2014)
